In a melting point compilation (Tetko et al.):

Row | Compound | melting point [°C]
1 | N=C(N)NCCC(=O)O | 220 to 224
2 | CC(C)(C)Oc1ccc(C(N)=S)cc1 | 179 to 181
3 | COc1cc2nc(N3CCN(C(=O)C4COc5ccccc5O4)CC3)nc(N)c2cc1OC (stereo not drawn) | 279 to 281
4 | CC1CCCCC1Nc1nnc(S)s1 (stereo not drawn) | 133 to 135
5 | CN(C)S(=O)(=O)c1ccsc1C(=O)O | 108 to 110
6 | CC(=O)NCc1ccc(S(=O)(=O)NCC(=O)O)s1 | 192 to 194
7 | Cc1ccc(-n2nnc(CC(=O)O)c2C)cc1 | 194 to 196
8 | Cc1nnc2[nH]cc(C(=O)NN)cc1-2 | 289 to 291
9 | CC(C)c1nc(-c2cccc3ncccc23)n[nH]1 | 143 to 145
10 | Nc1nc(-c2cc(F)ccc2F)cs1 | 145 to 147
11 | COc1ccccc1-n1cc(-c2ccc(Cl)cc2Cl)nc1S | 244 to 246
12 | Nc1ccc(Oc2ccc(Cl)cn2)cc1 | 70 to 72
13 | Nc1ccccc1CN1CCC(O)CC1 | 112 to 114
14 | C#CCOc1c(Cl)cc(C=O)cc1OC | 106 to 108
15 | O=C(O)c1ccc([N+](=O)[O-])s1 | 143 to 151
16 | NNC(=O)CCc1ccccc1 | 99 to 101
17 | O=C(O)Cc1ccc(O)cc1Cl | 171 to 173
18 | Cc1ccc(-c2nn(-c3ccccc3)cc2/C=C(\C#N)C(=O)O)cc1 | 295 to 297
19 | NC(=O)Nc1cccc(Br)c1 | 163 to 167
20 | O=C(c1ccccn1)N1CCNCC1 | 231 to 233
21 | Cc1ccc2nc(S)n(C)c(=O)c2c1 | 275 to 277
22 | O=C(O)CCNS(=O)(=O)c1ccccc1Cl | 128 to 130
23 | O=C(O)c1cc(S(=O)(=O)N2CCSCC2)c[nH]1 | 238 to 240
24 | CS(=O)(=O)OCCn1cnc2ccsc2c1=O | 112 to 114

Row | Compound | melting point [°C]
25 | Cc1ccc(N)cc1S(=O)(=O)Nc1ccc(Cl)cc1 | 144 to 146
26 | O=C(Nc1cccc(Br)c1)C1CCNCC1 | 178 to 180
27 | Cc1ccc2[nH]c3c(c2c1)CC(C)(C)CC3 | 114 to 116
28 | O=C(O)CNC(=O)c1cccs1 | 169 to 171
29 | CCCOc1ccc(-c2nc(C(=O)O)cs2)cc1 | 183 to 185
30 | Nc1cc(C(=O)O)ccc1-n1cnnc1 | 334 to 336
31 | CCOC(=O)c1sc(NC(=O)CCl)c(C(=O)OC(C)(C)C)c1C | 148 to 150
32 | CCC(=O)c1cnn(C)c1 | 44 to 46
33 | Cc1c(-c2ccccc2)sc(N)c1C(=O)N1CCOCC1 | 187 to 189
34 | Cc1ccc(C)n1-c1ccc(Br)cc1 | 61 to 63
35 | c1cn(C2CCNCC2)cn1 | 135 to 137
36 | CCC(=O)Nc1ccc(C#N)cc1 | 174 to 176
37 | Cc1ccc(N2CCCC2)c(C(=O)O)c1 | 124 to 126
38 | O=C(Nc1ncccc1O)c1ccc(C2SCCS2)cc1 | 114 to 116
39 | COc1ccc(COCC(=O)O)cc1 | 41 to 43
40 | CCOc1cc(C(=O)O)c([N+](=O)[O-])cc1OC | 213 to 215
41 | CC(=O)COc1ccc2cc(Br)ccc2c1 | 106 to 108
42 | CCCCCn1cc(C(=O)O)c2ccccc21 | 97 to 99
43 | N#CCc1cccc2cccnc12 | 84 to 86
44 | CCOc1cccc(C(N)=S)c1 | 118 to 120
45 | COC(=O)C#Cc1ccc(F)cc1F | 58 to 60
46 | CC(Cl)C(=O)Nc1ccccc1Cl (stereo not drawn) | 63 to 65
47 | O=C(O)CCNC(=O)c1ccc(F)cc1 | 133 to 135
48 | COC(=O)c1c(-c2ccccc2Cl)csc1N | 92 to 96

Row | Compound | melting point [°C]
49 | O=C(c1cccc(F)c1)c1ccccn1 | 37 to 39
50 | COC(=O)c1ccc(CS(N)(=O)=O)cc1 | 138 to 140
51 | O=C(O)c1sc2cccc([N+](=O)[O-])c2c1Cl | 219 to 221
52 | Cc1ccccc1OCc1nnc(S)[nH]1 | 110 to 112
53 | NC(=O)c1cccc(Cl)n1 | 124 to 126
54 | O=c1ccccn1CCO | 88 to 90
55 | N#Cc1cccc(N2CCOC2=O)c1 | 102 to 104
56 | COc1cccc(C(=O)O)c1F | 157 to 160
57 | COc1ccc(S(N)(=O)=O)c([N+](=O)[O-])c1 | 143 to 145
58 | CCCCN(C)S(=O)(=O)c1ccc(N)cc1 | 76 to 80
59 | O=C(O)c1cnc(-c2ccsc2)s1 | 208 to 210
60 | COC(=O)c1ccc(C)c(S(=O)(=O)Cl)c1 | 45 to 47
61 | CCn1c(=O)[nH]c(=O)c2cc(C(=O)O)cnc21 | 316 to 318
62 | NS(=O)(=O)c1ccc(F)c(C(=O)O)c1 | 186 to 188
63 | Nc1ccc(-c2cccc(C(F)(F)F)c2)cn1 | 101 to 103
64 | N#CC1(C(=O)O)CCc2ccccc2C1 (stereo not drawn) | 123 to 125
65 | CCCCn1c(N)cc(=O)n(C)c1=O | 92 to 94
66 | Clc1cnc(N2CCNCC2)c(Cl)c1 | 59 to 61
67 | COC(=O)c1ccc(S(N)(=O)=O)c([N+](=O)[O-])c1 | 139 to 141
68 | CSc1ccc(C(=O)CCl)cc1NC(C)=O | 98 to 102
69 | NC(=O)Cc1csc(N)n1 | 158 to 165
70 | O=C(O)c1ccccc1SCC(F)(F)F | 169 to 171
71 | CCN(C(C)=O)c1nc(C=O)cs1 | 121 to 123
72 | COc1cc(C(=O)O)cc(N)c1OC | 135 to 137

Row | Compound | melting point [°C]
73 | O=C(O)c1ccnc(OCC(F)(F)F)c1 | 109 to 111
74 | Cc1ccc(C2(C)NC(=O)NC2=O)cc1 (stereo not drawn) | 207 to 209
75 | COc1cc(N2CC(C(=O)O)CC2=O)cc(OC)c1OC (stereo not drawn) | 143 to 145
76 | CCN1CCCC1CNS(=O)(=O)c1ccc(N)cc1 (stereo not drawn) | 101 to 103
77 | O=C(O)C1(c2ccc(Br)cc2)CCOCC1 | 195 to 197
78 | O=C1CN(CCOc2ccc(Br)cc2)CCN1 | 111 to 113
79 | O=C(O)Cc1ccc(NC(=O)c2ccc(Br)cc2)cc1 | 269 to 271
80 | COc1ccc2[nH]c(NCc3ccccc3)nc2c1 | 179 to 181
81 | NC(=O)C1(N)CCOCC1 | 78 to 80
82 | N#CCNc1cccc(Cl)c1 | 51 to 53
83 | CC(C)(F)c1nc(N)nc(Cl)n1 | 169 to 171
84 | COc1c(C(=O)O)sc(C)c1Br | 165 to 167
85 | CC(O)c1ncc(Cl)n1C (stereo not drawn) | 113 to 115
86 | C1CCC(c2nnn[nH]2)C1 | 119 to 121
87 | O=C(O)c1ccc(N2CC=CC2)cc1 | 285 to 287
88 | Nc1ccc(F)c(NC(=O)Cn2cncn2)c1 | 194 to 196
89 | N#Cc1ccc(NN)cc1C(F)(F)F | 119 to 121
90 | CCc1ccc(C(=O)CCl)cc1 | 41 to 43
91 | COc1ccc(-c2nnc(Cl)c3ccccc23)cc1 | 148 to 150
92 | NC(=O)C1CCN(CC(=O)c2ccc(Cl)cc2)CC1 | 164 to 166
93 | CC(N)c1cccc(S(N)(=O)=O)c1 (stereo not drawn) | 27 to 29
94 | Cc1nc(O)nc(C)c1Br | 210 to 212
95 | BrCCOc1ccc2ccccc2c1 | 94 to 96
96 | O=C(CSc1ccccc1C(=O)O)c1ccc(-c2ccccc2)cc1 | 189 to 191

Row | Compound | melting point [°C]
97 | COc1ccc(C(=O)O)nn1 | 139 to 141
98 | O=C(O)C1CCN(C(=O)NC2CC2)CC1 | 123 to 125
99 | CCOCCn1c(N)cc(=O)[nH]c1=O | 257 to 259
100 | NS(=O)(=O)c1ccc2c(c1)COC2 | 146 to 148
101 | Nc1snc2ccc([N+](=O)[O-])cc12 | 198 to 200
102 | COc1ccc(S(=O)(=O)N2CCOCC2)cc1C(=O)O | 180 to 184
103 | O=C(O)CCCNC(=O)c1cccnc1 | 211 to 213
104 | O=c1[nH]c2ccc(I)cc2o1 | 209 to 211
105 | O=C(Nc1ccc(C(=O)O)c(O)c1)c1cc(Cl)cc(Cl)c1 | 268 to 270
106 | COc1ccc(Br)cc1C(=O)C(=O)O | 137 to 139
107 | COCc1cc(C(=O)O)ccc1F | 100 to 102
108 | Nc1ccc(N2CCC(O)CC2)cc1 | 171 to 173
109 | CCOC(=O)C1=C(C)NC(C)=C(C(=O)O)C1c1cccc([N+](=O)[O-])c1 (stereo not drawn) | 199 to 201
110 | CCNc1nc2cc(Cl)ccc2s1 | 118 to 120
111 | NNC(=S)Nc1ccccc1F | 159 to 161
112 | NC1=NN(c2c(Cl)cc(Cl)cc2Cl)C(=O)C1 | 218 to 220
113 | NCCCN1C(=O)C2C3C=CC(C3)C2C1=O (stereo not drawn) | 66 to 68
114 | Cc1ccc(C(=O)O)cc1S(C)(=O)=O | 209 to 211
115 | O=C(O)c1cc(N2CCCC2=O)ccc1F | 254 to 256
116 | Cc1noc(C=Cc2ccc(F)cc2)c1N | 167 to 169
117 | Fc1ccc(OCC2CNCCO2)cc1F (stereo not drawn) | 49 to 51
118 | CC(C)(C)OC(=O)N1CCc2ccccc2C1C(=O)O (stereo not drawn) | 142 to 144
119 | O=C(O)CSc1nc2ccccc2o1 | 158 to 160
120 | O=C1CCc2cc(Cl)ccc2N1 | 162 to 164

Row | Compound | melting point [°C]
121 | O=C(O)c1ccccc1C(=O)c1ccc2c(c1)OCCO2 | 168 to 170
122 | COc1ccc(S(=O)(=O)N(C)c2ccc(O)cc2)cc1 | 88 to 90
123 | O=C(O)CSCc1ccc(F)cc1 | 71 to 73
124 | Fc1ccc(-n2nccc2Br)cc1 | 73 to 75
125 | O=C(O)CNS(=O)(=O)C=Cc1ccccc1 | 80 to 82
126 | Cc1cc(C(=O)O)nn1-c1ccc(Cl)cc1Cl | 199 to 201
127 | O=C(CCC1CCCO1)NC1CCC(C(=O)O)CC1 (stereo not drawn) | 199 to 201
128 | O=C(O)CC1COC(=O)C1 (stereo not drawn) | 83 to 85
129 | NC(=O)NCC1CCCNC1 (stereo not drawn) | 83 to 85
130 | Cc1nn(Cc2ccc(Cl)cc2)c(C)c1C(=O)O | 188 to 190
131 | CN1C(=O)CCC(C(=O)O)C1c1cnn(C)c1 (stereo not drawn) | 225 to 227
132 | NC(=S)NCCc1ccccn1 | 94 to 98
133 | O=c1cc(-c2ccccc2)c2cc(Cl)c(O)cc2o1 | 260 to 262
134 | Cc1ncc(CN)n1-c1ccccc1 | 46 to 48
135 | O=C(O)CNC(=O)c1cccc(O)c1 | 174 to 176
136 | O=C(CCl)NC(=O)NC1CCCCC1 | 102 to 105
137 | Sc1nnc(COc2ccc(Cl)cc2)n1Cc1ccccc1 | 211 to 213
138 | Cc1ccc(N2CCCNC(=O)C2)cc1 | 181 to 183
139 | Cc1cc(C)c(OCC(=O)O)c(C)c1 | 150 to 152
140 | CC(=O)c1cn(C)nc1C | 72 to 74
141 | COc1ccc(-c2nnc(S)o2)cc1 | 202 to 204
142 | CC(C)Oc1ccccc1CC(=O)O | 92 to 94
143 | CC(=O)NC(C)c1ccc(-c2csc(N)n2)cc1 (stereo not drawn) | 225 to 227
